Experimental findings from patent US9783536B2, “Nitrogen-containing heterocyclic compound or salt thereof” (FUJIFILM Corporation, priority 2013, dated 2017) are described below.

Where two headings read alike, the source gives them in different places. Some results are limits rather than exact numbers.

One assay has as its target T1, human PI3Kα protein (Homo sapiens, UniProt P42336).
T1 construct: purchased Carna Biosciences, Inc; host or cells: baculovirus expression system
The experiment in a line: PI3Kα enzyme assay (ADP-Glo). The format is biochemical. The note with it: read-out: PI3Kα enzyme inhibitory activity. The essentials:
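Biotinylated human PI3Kα (baculovirus-expressed, 4.5 nmol/L) pre-incubated 15 min with compound in Tris-HCl pH 7.5, MgCl2, BSA; reaction 60 min at 25° C with 50 μmol/L PIP2 and 100 μmol/L ATP final. ADP quantified by ADP-Glo luminescence; IC50 calculated.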
(In ADP-Glo the light output rises with the ADP produced.)

Assay [1] has as its target T2, GST fusion human ERK2 protein (Homo sapiens, UniProt P28482).
T2 construct: purchased Carna Biosciences, Inc; host or cells: E. coli expression system
Description: ERK2 enzyme assay (2). The format is biochemical. The note with it: ERK2 enzyme assay (2); read-out: ERK2 enzyme inhibitory activity (2). The essentials: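 IC50 values come from mobility-shift measurement of phosphorylated versus unphosphorylated 5-FAM peptide substrate after EDTA quench. Beforehand, compound and 1.25 nmol/L E. coli-expressed GST–human ERK2 stood 15 min at room temperature (pH 7.5), then 1 mmol/L ATP and 4.25 μmol/L substrate (final) were added for 120 min at 25 °C.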

A further assay deals with CHO-K1 cells. The experiment in a line: CHO cell toxicity test. The note with it: Cricetulus griseus, read-out: IC50 value (concentration at which the number of viable cells was suppressed to 50% or less). The format is cell-based, Chinese hamster. The procedure: In a CHO cell toxicity test, the following was used.
Cell: CHO-K1 cells (derived from Chinese hamster ovary) Test medium: F-12 MEDIUM+FCS (manufactured by Biowest) having a final concentration of 2%
Detection reagent: CELLTITER-GLO™ LUMINESCENT CELL VIABILITY ASSAY (trade name, manufactured by PROMEGA Corporation)
The CHO-K1 cells were seeded in a 96-well microplate for culture at 5,000 cells/well, and cultured in a CO2 incubator (37° C.) for 24 hours. An evaluation compound (final concentration: from 25.00 μmol/L to 0.20 μmol/L, common ratio: […]) was added thereto, followed by culturing for 24 hours, and the number of viable cells was calculated from emission intensity by CELLTITER-GLO™ (trade name, manufactured by PROMEGA Corporation). In the measurement of the emission intensity, VARIOSKAN FLASH (manufactured by Thermo Fisher Scientific Inc.) was used.
Inhibition ratio (%)=100−(A/B)×100
A: Emission intensity in the presence of a test compound
B: Emission intensity in the absence of a test compound

[2] abbreviates: CHO-K1 cells, 24 hours culture with compound, CellTiter-Glo.

T2 sequence (P28482 whole entry, the tested form may be a part): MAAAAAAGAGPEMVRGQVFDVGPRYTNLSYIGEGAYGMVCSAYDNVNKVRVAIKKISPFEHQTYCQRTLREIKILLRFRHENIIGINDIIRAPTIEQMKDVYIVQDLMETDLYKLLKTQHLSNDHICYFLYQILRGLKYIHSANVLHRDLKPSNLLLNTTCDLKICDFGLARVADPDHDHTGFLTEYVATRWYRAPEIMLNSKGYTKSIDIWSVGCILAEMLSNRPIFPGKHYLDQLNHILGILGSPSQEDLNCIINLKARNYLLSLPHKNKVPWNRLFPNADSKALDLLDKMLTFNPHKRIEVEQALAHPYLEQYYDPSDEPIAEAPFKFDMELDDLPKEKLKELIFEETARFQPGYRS
T1 sequence (P42336 whole entry): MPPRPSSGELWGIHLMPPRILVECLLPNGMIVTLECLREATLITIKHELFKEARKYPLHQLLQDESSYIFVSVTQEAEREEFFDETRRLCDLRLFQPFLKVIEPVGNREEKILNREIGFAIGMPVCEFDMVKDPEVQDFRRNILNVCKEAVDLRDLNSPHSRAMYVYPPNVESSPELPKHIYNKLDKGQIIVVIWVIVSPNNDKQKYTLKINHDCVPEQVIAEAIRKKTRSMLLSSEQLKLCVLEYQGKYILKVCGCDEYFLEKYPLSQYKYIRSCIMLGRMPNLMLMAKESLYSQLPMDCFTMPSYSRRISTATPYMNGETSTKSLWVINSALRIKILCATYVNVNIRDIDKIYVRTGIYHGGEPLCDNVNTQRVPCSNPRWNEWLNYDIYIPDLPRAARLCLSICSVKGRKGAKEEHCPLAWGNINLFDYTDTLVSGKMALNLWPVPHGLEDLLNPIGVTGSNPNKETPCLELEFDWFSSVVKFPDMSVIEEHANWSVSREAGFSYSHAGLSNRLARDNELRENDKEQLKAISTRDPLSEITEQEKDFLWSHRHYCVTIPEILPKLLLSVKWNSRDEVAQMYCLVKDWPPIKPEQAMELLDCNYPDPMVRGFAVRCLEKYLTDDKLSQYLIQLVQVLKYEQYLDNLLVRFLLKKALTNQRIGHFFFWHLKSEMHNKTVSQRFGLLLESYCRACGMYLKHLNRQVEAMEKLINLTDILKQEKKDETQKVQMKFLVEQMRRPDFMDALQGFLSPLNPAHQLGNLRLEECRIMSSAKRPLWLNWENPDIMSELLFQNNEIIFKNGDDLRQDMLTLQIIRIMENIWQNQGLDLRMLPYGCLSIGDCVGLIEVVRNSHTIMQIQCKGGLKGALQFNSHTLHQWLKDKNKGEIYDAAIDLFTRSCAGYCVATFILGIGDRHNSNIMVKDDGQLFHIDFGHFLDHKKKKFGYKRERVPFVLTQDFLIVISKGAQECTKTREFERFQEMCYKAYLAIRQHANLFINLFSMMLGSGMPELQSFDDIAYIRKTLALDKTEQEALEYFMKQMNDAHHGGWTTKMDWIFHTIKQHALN
T1 sequence (P27986 whole entry partner): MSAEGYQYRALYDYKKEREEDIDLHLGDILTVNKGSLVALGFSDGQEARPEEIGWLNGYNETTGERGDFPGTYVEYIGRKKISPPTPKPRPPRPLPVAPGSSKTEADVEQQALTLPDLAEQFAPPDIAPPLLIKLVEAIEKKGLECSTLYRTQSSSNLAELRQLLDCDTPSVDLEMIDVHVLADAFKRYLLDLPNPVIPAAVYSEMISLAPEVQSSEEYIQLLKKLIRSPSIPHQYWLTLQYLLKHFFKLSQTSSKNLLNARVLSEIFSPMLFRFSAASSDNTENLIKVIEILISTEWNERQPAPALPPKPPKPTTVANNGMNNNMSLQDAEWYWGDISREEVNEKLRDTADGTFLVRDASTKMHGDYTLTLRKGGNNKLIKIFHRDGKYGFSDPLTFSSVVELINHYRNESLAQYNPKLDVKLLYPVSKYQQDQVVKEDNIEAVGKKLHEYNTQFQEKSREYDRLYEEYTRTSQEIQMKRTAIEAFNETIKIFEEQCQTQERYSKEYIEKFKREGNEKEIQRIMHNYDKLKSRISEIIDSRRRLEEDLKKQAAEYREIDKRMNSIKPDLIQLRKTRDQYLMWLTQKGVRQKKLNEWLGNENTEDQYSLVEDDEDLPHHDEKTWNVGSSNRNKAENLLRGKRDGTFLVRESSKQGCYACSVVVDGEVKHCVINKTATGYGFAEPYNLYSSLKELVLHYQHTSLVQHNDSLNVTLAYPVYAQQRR

On to `FC(F)(F)Cn1cc(-c2cnc3ccc(Nc4cc(C5CC5)cnn4)nc3c2)cn1` [Example 0465, N-(5-cyclopropylpyridazin-3-yl)-7-(1-(2,2,2-trifluoroethyl)-1H-pyrazol-4-yl)-1,5-naphthyridine-2-amine], for which the IC50 is under 1000 nM at human PI3Kα protein, under 1000 nM in assay [1] and at least 25000 nM with CHO-K1 cells (setting [2]).

For `CC(C)c1cnnc(Nc2ccc3ncc(-c4cnn(C5CCN(S(C)(=O)=O)CC5)c4)cc3n2)c1` [Example 0479], the IC50 on human PI3Kα protein was under 1000 nM; in assay [1] it was under 1000 nM; in the assay on CHO-K1 cells (setting [2]), at least 25000 nM.

For the compound `CC(C)c1cnnc(Nc2ccc3ncc(-c4cnn(CC5CCOCC5)c4)cc3n2)c1` [Example 0482], the IC50 at human PI3Kα protein is under 1000 nM; in assay [1], under 1000 nM; in the assay with CHO-K1 cells (setting [2]) it was at least 25000 nM.

Consider `CC(C)c1cnnc(Nc2ccc3ncc(-c4cnn(CC5CCN(C)CC5)c4)cc3n2)c1` [Example 0486, N-(5-isopropylpyridazin-3-yl)-7-(1-((1-methylpiperidin-4-yl)methyl)-1H-pyrazol-4-yl)-1,5-naphthyridine-2-amine], for which the IC50 on human PI3Kα protein is under 1000 nM; in assay [1] it was under 1000 nM; with CHO-K1 cells (setting [2]), at least 25000 nM.

As for `CC(C)c1cnnc(Nc2ccc3ncc(-c4cnn(CCC5CCN(C)CC5)c4)cc3n2)c1` [Example 0487, N-(5-isopropylpyridazin-3-yl)-7-(1-(2-(1-methylpiperidin-4-yl)ethyl)-1H-pyrazol-4-yl)-1,5-naphthyridine-2-amine], the results for the IC50 (on human PI3Kα protein; in assay [1]; in the assay on CHO-K1 cells (setting [2])) were under 1000 nM, under 1000 nM and at least 25000 nM, respectively.

For `CC(C)c1cnnc(Nc2ccc3ncc(-c4cnn(C5CN(C)C5)c4)cc3n2)c1` [Example 0490], the IC50 on human PI3Kα protein was under 1000 nM; in assay [1], under 1000 nM; in the assay with CHO-K1 cells (setting [2]), at least 25000 nM.

With `CC(C)c1cnnc(Nc2ccc3ncc(-c4cnn(CC5CN(C)C5)c4)cc3n2)c1` [Example 0491], the IC50 on human PI3Kα protein was under 1000 nM; in assay [1] it was under 1000 nM; with CHO-K1 cells (setting [2]) it was at least 25000 nM.

With `CC(C)c1cnnc(Nc2ccc3ncc(-c4cnn([C@H]5CCN(C)C5)c4)cc3n2)c1` [Example 0492], the IC50 was under 1000 nM on human PI3Kα protein, under 1000 nM in assay [1] and at least 25000 nM with CHO-K1 cells (setting [2]).

For `CC(C)c1cnnc(Nc2ccc3ncc(-c4cnn([C@@H]5CCN(C)C5)c4)cc3n2)c1` [Example 0493], the IC50 on human PI3Kα protein is under 1000 nM; in assay [1], under 1000 nM; with CHO-K1 cells (setting [2]) it was at least 25000 nM.

For `CCN(c1cnnc(Nc2ccc3ncc(-c4cnn(C)c4)cc3n2)c1)C(C)C` [Example 0500], the results for the IC50 (at human PI3Kα protein; in assay [1]; in the assay on CHO-K1 cells (setting [2])) were under 1000 nM, under 1000 nM and at least 25000 nM, respectively.

As for `CC(C)c1cnnc(Nc2ccc3ncc(-n4ccnc4)cc3n2)c1` [Example 0510, 7-(1H-imidazol-1-yl)-N-(5-isopropylpyridazin-3-yl)-1,5-naphthyridine-2-amine], the IC50 at human PI3Kα protein was 1000 to 10000 nM; in assay [1], under 1000 nM; in the assay with CHO-K1 cells (setting [2]) it was at least 25000 nM.

With `CC(C)c1cnnc(Nc2ccc3ncc(-c4cn(C)nc4-c4cccnc4)cc3n2)c1` [Example 0515], the values for the IC50 (at human PI3Kα protein; in assay [1]; in the assay with CHO-K1 cells (setting [2])) were under 1000 nM, under 1000 nM and at least 25000 nM, respectively.

For the compound `CCN(CC)c1cnnc(Nc2ccc3ncc(-c4cnn(C)c4)cc3n2)c1` [Example 0517], the IC50 at human PI3Kα protein was under 1000 nM; in assay [1] it was under 1000 nM; in the assay on CHO-K1 cells (setting [2]), at least 25000 nM.

Regarding `CC(C)c1cnnc(Nc2ccc3ncc(-c4cnn(CC5CCN(S(C)(=O)=O)CC5)c4)cc3n2)c1` [Example 0530], the IC50 on human PI3Kα protein is under 1000 nM; in assay [1] it was under 1000 nM; in the assay on CHO-K1 cells (setting [2]) it was at least 25000 nM.

`CC(C)c1cnnc(Nc2ccc3ncc(-c4c[nH]nc4-c4cccnc4)cc3n2)c1` [Example 0545]: the values for the IC50 (on human PI3Kα protein; in assay [1]; with CHO-K1 cells (setting [2])) were under 1000 nM, under 1000 nM and at least 25000 nM, respectively.

`CC(C)c1cnnc(Nc2ccc3ncc(-c4cnn(CC(=O)N(C)C)c4)cc3n2)c1` [Example 0549, 2-(4-(6-((5-Isopropylpyridazin-3-yl)amino)-1,5-naphthyridin-3-yl)-1H-pyrazol-1-yl)-N,N-dimethylacetamide]: the IC50 at human PI3Kα protein was under 1000 nM; in assay [1], under 1000 nM; in the assay on CHO-K1 cells (setting [2]), at least 25000 nM.

Regarding `CC(C)c1cnnc(Nc2ccc3ncc(-c4cnn(CCCS(C)(=O)=O)c4)cc3n2)c1` [Example 0550], the IC50 is under 1000 nM on human PI3Kα protein, under 1000 nM in assay [1] and at least 25000 nM in the assay with CHO-K1 cells (setting [2]).

For the compound `CC(C)c1cnnc(Nc2ccc3ncc(-c4cn(C)nc4-c4ccncc4)cc3n2)c1` [Example 0552], the IC50 was under 1000 nM at human PI3Kα protein, under 1000 nM in assay [1] and at least 25000 nM in the assay on CHO-K1 cells (setting [2]).

As to `CC(C)c1cnnc(Nc2ccc3ncc(-c4cnn(C[C@@H]5CCC(=O)N5C)c4)cc3n2)c1` [Example 0557, (S)-5-((4-(6-((5-isopropylpyridazin-3-yl)amino)-1,5-naphthyridin-3-yl)-1H-pyrazol-1-yl)methyl)-1-methylpyrrolidin-2-one], the IC50 at human PI3Kα protein was under 1000 nM; in assay [1], under 1000 nM; with CHO-K1 cells (setting [2]), at least 25000 nM.

`CC(C)c1cnnc(Nc2ccc3ncc(-c4cn(C)nc4C4CC4)cc3n2)c1` [Example 0567]: the values for the IC50 (on human PI3Kα protein; in assay [1]; with CHO-K1 cells (setting [2])) were under 1000 nM, under 1000 nM and at least 25000 nM, respectively.

Turning to `CC(C)c1cnnc(Nc2ccc3ncc(-c4cnn(CC5CN(S(C)(=O)=O)C5)c4)cc3n2)c1` [Example 0572, N-(5-isopropylpyridazin-3-yl)-7-(1-((1-(methylsulfonyl)azetidin-3-yl)methyl)-1H-pyrazol-4-yl)-1,5-naphthyridine-2-amine], the IC50 on human PI3Kα protein was under 1000 nM; in assay [1] it was under 1000 nM; in the assay with CHO-K1 cells (setting [2]) it was at least 25000 nM.

Take `Cn1cc(-c2cnc3ccc(Nc4cc(C5CC5)cnn4)nc3c2)c(-c2cccnc2)n1` [Example 0573, N-(5-cyclopropylpyridazin-3-yl)-7-(1-methyl-3-(pyridin-3-yl)-1H-pyrazol-4-yl)-1,5-naphthyridine-2-amine]: the results for the IC50 (at human PI3Kα protein; in assay [1]; in the assay on CHO-K1 cells (setting [2])) were under 1000 nM, under 1000 nM and at least 25000 nM, respectively.

Take `CCn1cc(-c2cnc3ccc(Nc4cc(C(C)C)cnn4)nc3c2)c(-c2cccnc2)n1` [Example 0576]: the figures for the IC50 (on human PI3Kα protein; in assay [1]; in the assay on CHO-K1 cells (setting [2])) were under 1000 nM, under 1000 nM and at least 25000 nM, respectively.

As to `CC(C)c1cnnc(Nc2ccc3ncc(-c4cn(C)nc4-c4cncs4)cc3n2)c1` [Example 0583], the IC50 on human PI3Kα protein is under 1000 nM; in assay [1] it was under 1000 nM; in the assay on CHO-K1 cells (CHO-K1, 24 h) it was at least 25000 nM.

With `CC(C)c1cnnc(Nc2ccc3ncc(-c4cnn(CCCN5CC6(COC6)C5)c4)cc3n2)c1` [Example 0613], the figures for the IC50 (on human PI3Kα protein; in assay [1]; in the assay with CHO-K1 cells (setting [2])) were under 1000 nM, under 1000 nM and at least 25000 nM, respectively.

Regarding `CC(C)c1cnnc(Nc2ccc3ncc(-c4cnn(CCCN5C[C@@H](C)O[C@H](C)C5)c4)cc3n2)c1` [Example 0614], the IC50 was under 1000 nM on human PI3Kα protein, under 1000 nM in assay [1] and at least 25000 nM in the assay with CHO-K1 cells (setting [2]).

With `CC(C)c1cnnc(Nc2ccc3ncc(-c4cnn(CCCN5C[C@@H](C)O[C@@H](C)C5)c4)cc3n2)c1` [Example 0615], the IC50 at human PI3Kα protein was under 1000 nM; in assay [1], under 1000 nM; in the assay with CHO-K1 cells (setting [2]), at least 25000 nM.

In the case of `CC(C)c1cnnc(Nc2ccc3ncc(-c4cn(C)nc4CF)cc3n2)c1` [Example 0626, 7-(3-(Fluoromethyl)-1-methyl-1H-pyrazol-4-yl)-N-(5-isopropylpyridazin-3-yl)-1,5-naphthyridine-2-amine], the IC50 was under 1000 nM at human PI3Kα protein, under 1000 nM in assay [1] and at least 25000 nM in the assay on CHO-K1 cells (setting [2]).

`CC(C)c1cnnc(Nc2ccc3ncc(-c4cnn(CCCN5CC(O)C5)c4)cc3n2)c1` [Example 0629]: the IC50 at human PI3Kα protein is under 1000 nM; in assay [1], under 1000 nM; in the assay with CHO-K1 cells (setting [2]), at least 25000 nM.

With `COC1CN(CCCn2cc(-c3cnc4ccc(Nc5cc(C(C)C)cnn5)nc4c3)cn2)C1` [Example 0630], the IC50 on human PI3Kα protein was under 1000 nM; in assay [1], under 1000 nM; in the assay with CHO-K1 cells (setting [2]) it was at least 25000 nM.

As for `Cn1cc(-c2cnc3ccc(Nc4cc(C5CCCC5)cnn4)nc3c2)c(CF)n1` [Example 0631, N-(5-cyclopentylpyridazin-3-yl)-7-(3-(fluoromethyl)-1-methyl-1H-pyrazol-4-yl)-1,5-naphthyridine-2-amine], the figures for the IC50 (on human PI3Kα protein; in assay [1]; in the assay with CHO-K1 cells (setting [2])) were under 1000 nM, under 1000 nM and at least 25000 nM, respectively.
